Measurements from PubChem BioAssay (NCI).
Values joined by “and” are separate entries in the source; they are usually repeats but may differ in a detail not shown here. Equal values may be shown once.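 Step 1: Grow cells in 96-well plates. Step 2: Expose to compound for 48 hours at 5 concentrations. Step 3: Interpolate endpoints linearly; if unreached, use highest concentration. At the GI50, growth is halved. Definition used: TGI = concentration required for complete inhibition of growth.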

Assays:
Test in all cases: DTP human tumour cell line panel, 48 h
[1] = system: SR leukemia
[2] = system: UACC-257 melanoma
[3] = system: MALME-3M melanoma
[4] = system: IGROV1 ovarian
[5] = system: DMS 273 small cell lung
[6] = system: SF-268 CNS
[7] = system: UO-31 renal
[8] = system: HCC-2998 colon
[9] = system: LOX IMVI melanoma
[10] = system: SK-MEL-5 melanoma

| SMILES | TGI [1] | TGI [2] | TGI [3] | TGI [4] | TGI [5] | TGI [6] | TGI [7] | TGI [8] | TGI [9] | TGI [10] | GI50 [2] | GI50 [4] | GI50 [6] | GI50 [7] | GI50 [1] | GI50 [9] | GI50 [3] | GI50 [10] | GI50 [8] | GI50 [5] |
| --- | --- | --- | --- | --- | --- | --- | --- | --- | --- | --- | --- | --- | --- | --- | --- | --- | --- | --- | --- | --- |
| COc1ccc(/C=C\c2cc(OC)c(O[Si](C)(C)C(C)(C)C)c(OC)c2)cc1 | 56.2 µM | 62.4 µM | > 100 µM | > 100 µM | > 100 µM | > 100 µM | > 100 µM | > 100 µM |  |  |  |  |  |  |  |  |  |  |  |  |
| NCCCCNc1ccc2c(=O)[nH][nH]c(=O)c2c1 | > 100 µM | > 100 µM | > 100 µM | > 100 µM | > 100 µM | > 100 µM | > 100 µM | > 100 µM | > 100 µM | > 100 µM |  |  |  |  |  |  |  |  |  |  |
| CC(=O)NC(CCCCNC(=O)NCCCl)C(=O)NCc1ccccc1 (stereo unspecified) | > 100 µM | > 100 µM | > 100 µM |  | > 100 µM | > 100 µM | > 100 µM | > 100 µM |  | > 100 µM |  |  |  |  |  |  |  |  |  |  |
| C/C(CCc1ccccc1)=N\NC(N)=S | > 100 µM | > 100 µM | > 100 µM | > 100 µM | > 100 µM | > 100 µM | > 100 µM | > 100 µM | > 100 µM | > 100 µM |  |  |  |  |  |  |  |  |  |  |
| N#CCCN(CCC#N)c1ccc(C(Sc2ccccc2)C(NC(=O)c2cc([N+](=O)[O-])ccc2Cl)C(=O)Sc2ccccc2)cc1 (stereo unspecified) | 3.9 µM | 14.3 µM | 22 µM | 8.99 µM and 4.2 µM | 5.15 µM | 8.86 µM and 5.95 µM | 4.77 µM | 19.7 µM | 5.71 µM | 15.6 µM | 3.06 µM | 1.49 µM | 1.27 µM | 1.11 µM |  |  |  |  |  |  |
| COC(=O)[C@]12CCC(C)[C@H](C)[C@H]1C1=CCC3[C@@]4(C)CC[C@H](OC(C)=O)C(C)(C)C4CC[C@@]3(C)C1(C)C(O)C2 (stereo partly specified) | > 100 µM | > 100 µM | > 100 µM | > 100 µM | > 100 µM | > 100 µM | > 100 µM | > 100 µM | > 100 µM | > 100 µM |  |  |  |  |  |  |  |  |  |  |
| CC[C@]1(O)C(=O)OCc2c1cc1n(c2=O)Cc2cc3c(N)cccc3nc2-1 | > 100 µM | > 100 µM | > 100 µM | > 100 µM | > 100 µM | > 100 µM | > 100 µM | > 100 µM | > 100 µM | > 100 µM |  |  |  |  |  |  |  |  |  |  |
| Cc1cccc(-n2c(=S)[nH]c3c(sc(=O)n3-c3ccccc3C)c2=O)c1 | > 100 µM | > 100 µM | > 100 µM | > 100 µM | > 100 µM | > 100 µM | > 100 µM | > 100 µM |  | > 100 µM |  |  |  |  |  |  |  |  |  |  |
| Cc1cc(C)c(C(=O)c2no[n+]([O-])c2C(=O)c2c(C)cc(C)c(Br)c2C)c(C)c1Br | 8.42 µM |  | 29.9 µM | 23.3 µM | 45.1 µM | 29.8 µM | 20.2 µM |  |  |  |  |  |  |  |  |  |  |  |  |  |
| O=C(c1ccncc1)n1nc(-c2ccccc2)c(N=Nc2ccccc2[N+](=O)[O-])c1-c1ccccc1 | > 100 µM | > 100 µM | > 100 µM | > 100 µM | > 100 µM | > 100 µM | 79.9 µM | > 100 µM |  | > 100 µM |  |  |  |  |  |  |  |  |  |  |
| NC(=S)NNc1c([N+](=O)[O-])cnn(-c2ccccc2)c1=O | > 100 µM | 38.8 µM | 33.7 µM | 35 µM | 33.8 µM | 40.6 µM | 38 µM | 33 µM | 23.7 µM | 33.2 µM |  |  |  |  |  |  |  |  |  |  |
| C/C=C1\NC(=O)[C@H]2CSSCCC=C[C@H](CC(=O)N[C@H](C(C)C)C(=O)N2)OC(=O)[C@H](C(C)C)NC1=O | 0.221 µM and 0.0286 µM and 0.047 µM |  |  |  | 0.0102 µM | 0.0206 µM and 0.0401 µM |  | < 0.01 µM and 0.00448 µM | < 0.01 µM and 0.00104 µM | < 0.01 µM and 0.000359 µM | < 0.01 µM and 0.000137 µM | < 0.01 µM and 0.000421 µM | < 0.01 µM | 0.026 µM and 0.0145 µM | < 0.01 µM and 0.000119 µM | < 0.01 µM and 0.000122 µM | < 10 nM and 0.0209 nM | < 0.01 µM | 0.000813 µM |  |
| COC(=O)C(CC(=O)Nc1ccc(C)cc1)C(=O)C(=O)Nc1ccccc1C(C)C (stereo unspecified) | > 100 µM | > 100 µM | > 100 µM | > 100 µM | > 100 µM | > 100 µM | > 100 µM | > 100 µM | > 100 µM | > 100 µM |  |  |  |  |  |  |  |  |  |  |
| CC1=C(C(=O)Nc2cccc(Cl)c2)C(c2ccccc2F)C(C(=O)Nc2cccc(Cl)c2)=C(C)N1 |  | 22.3 µM | 31.8 µM | 47.3 µM | 26.4 µM | 36.8 µM | 20.8 µM | 21 µM | 21.1 µM | 29.5 µM |  |  |  |  |  |  |  |  |  |  |
| C/C=C/C=C/C=C/C=C/C(=O)O | > 100 µM | > 100 µM | > 100 µM | > 100 µM | > 100 µM | > 100 µM | > 100 µM | > 100 µM | > 100 µM | > 100 µM |  |  |  |  |  |  |  |  |  |  |
| OC1(c2ccccc2)OC(C#Cc2ccccc2)(c2ccccc2)c2ccccc21 (stereo unspecified) | 9.39 µM | 20.9 µM | 22.7 µM | 24.1 µM | 12.1 µM | 15.2 µM | 4.05 µM |  | 11.2 µM | 20.2 µM |  |  |  |  |  |  |  |  |  |  |
| CS(=O)(=O)CSCSSCS(C)(=O)=O | > 91.8 µM | > 100 µM | > 100 µM | > 100 µM | > 81.3 µM | 77.5 µM | > 58.3 µM | > 100 µM | 71.2 µM | > 100 µM |  |  |  |  |  |  |  |  |  |  |
| C[C@]12CCCC(=O)C1(O)C[C@H](C(=O)O)CC2 (stereo partly specified) | > 100 µM | > 100 µM | > 100 µM | > 100 µM | > 100 µM | > 100 µM | > 100 µM | > 100 µM | > 100 µM | > 100 µM |  |  |  |  |  |  |  |  |  |  |
| CN(C)CC1CCC/C1=N\O (stereo unspecified) | > 100 µM | > 100 µM |  | > 100 µM | > 100 µM | > 100 µM | > 100 µM | > 100 µM | > 100 µM | > 100 µM |  |  |  |  |  |  |  |  |  |  |
| COC(=O)c1ccccc1NC(=O)C(=O)NNC(=O)c1ccncc1 | > 100 µM | > 100 µM | > 100 µM | > 100 µM | > 100 µM |  | > 100 µM | > 100 µM | > 100 µM | > 100 µM |  |  |  |  |  |  |  |  |  |  |
| N.N.N.N.O=C([O-])C(Cl)Cl.O=C([O-])C(Cl)Cl.[Co+3].[O-][Cl+3]([O-])([O-])[O-] |  | > 100 µM | > 100 µM | > 100 µM | > 100 µM | > 100 µM | > 100 µM | > 100 µM | > 100 µM | > 100 µM | > 100 µM | > 100 µM | > 100 µM | > 100 µM |  | > 100 µM | > 100000 nM | > 100 µM | > 100 µM | > 100 µM |
| COC1C2C=CC(C2)[C@H]1[N+](=O)[O-] (stereo partly specified) | > 100 µM | > 100 µM | > 100 µM | > 100 µM | > 100 µM | > 100 µM | > 100 µM | > 100 µM | > 100 µM | > 100 µM |  |  |  |  |  |  |  |  |  |  |
| Cc1ccc(-c2cc(-c3ccco3)c(C#N)c(=O)n2C2OC(OC(=O)c3ccccc3)C(OC(=O)c3ccccc3)C2OC(=O)c2ccccc2)cc1 (stereo unspecified) | > 100 µM |  | > 100 µM | > 100 µM | > 100 µM | > 100 µM | > 100 µM | > 100 µM | > 100 µM |  |  |  |  |  |  |  |  |  |  |  |
